Values of other authors as cited in PubChem BioAssay AID1259409 (Chemical Carcinogenesis Research Information System (CCRIS), 2018).

Test system: rodent chemically induced tumor inhibition, incidence and multiplicity
Experiment: CCRIS tumor inhibitor studies

## O=C1C=CC(=O)c2c(O)cccc21
Carcinogen: AZOXYMETHANE [25843-45-2], Dose [Inhibitor]: 200 PPM IN DIET FOR 4 WK BEGINNING 1 WK PRIOR TO FIRST CARCINOGEN DOSE (STUDY DURATION: 35 WK), Route [Inhibitor]: ORAL, Species: RAT, Strain/Sex: F344/MALE, Target Tissue: Type of Lesion: COLON: ADENOMA, Dose [Carcinogen]: 15 MG/KG BW 1X/WK FOR 3 WK (STUDY DURATION: 35 WK), Promoter: NONE
  tumour outcome (control, treated, inhibition, significance): 6/28 (21%), 4/30 (13%), 38%, not significant
Carcinogen: AZOXYMETHANE [25843-45-2], Dose [Inhibitor]: 200 PPM IN DIET FOR 4 WK BEGINNING 1 WK PRIOR TO FIRST CARCINOGEN DOSE (STUDY DURATION: 35 WK), Route [Inhibitor]: ORAL, Species: RAT, Strain/Sex: F344/MALE, Target Tissue: Type of Lesion: COLON: CARCINOMA, Dose [Carcinogen]: 15 MG/KG BW 1X/WK FOR 3 WK (STUDY DURATION: 35 WK), Promoter: NONE
  tumour outcome (control, treated, inhibition, significance): 8/28 (29%), 11/30 (37%), -28%, not significant
Carcinogen: AZOXYMETHANE [25843-45-2], Dose [Inhibitor]: 200 PPM IN DIET FOR 4 WK BEGINNING 1 WK PRIOR TO FIRST CARCINOGEN DOSE (STUDY DURATION: 35 WK), Route [Inhibitor]: ORAL, Species: RAT, Strain/Sex: F344/MALE, Target Tissue: Type of Lesion: SMALL INTESTINE: CARCINOMA, Dose [Carcinogen]: 15 MG/KG BW 1X/WK FOR 3 WK (STUDY DURATION: 35 WK), Promoter: NONE
  tumour outcome (control, treated, inhibition, significance): 7/28 (25%), 2/30 (7%), 72%, p<0.05

## CCOC(=O)Oc1ccc(/C=C/C=C/C(=O)NCCN2CCC(OC(c3ccccc3)c3ccccc3)CC2)cc1OC
Carcinogen: 7,12-DIMETHYLBENZ[A]ANTHRACENE, 57-97-6, Dose [Inhibitor]: 0, 30 MG/KG IN 5% TWEEN 80 ADMINISTERED 30 MIN PRIOR TO EACH PROMOTER DOSE 2/WK FOR 22 WK (STUDY DURATION: 25 WK), Route [Inhibitor]: ORAL, Species: MOUSE, Strain/Sex: CD-1/FEMALE, Target Tissue: Type of Lesion: SKIN: TUMOR, Dose [Carcinogen]: 200 NMOL ONCE, Promoter: 12-O-TETRADECANOYL-13-ACETATE, 16561-29-8
  tumour outcome (control, treated, inhibition, significance): 100%, 55%, 45%, p<0.05
Carcinogen: 7,12-DIMETHYLBENZ[A]ANTHRACENE, 57-97-6, Dose [Inhibitor]: 0, 30 MG/KG IN 5% TWEEN 80 ADMINISTERED 30 MIN PRIOR TO EACH PROMOTER DOSE 2/WK FOR 22 WK (STUDY DURATION: 25 WK), Route [Inhibitor]: ORAL, Species: MOUSE, Strain/Sex: CD-1/FEMALE, Target Tissue: Type of Lesion: SKIN: TUMOR, Dose [Carcinogen]: 200 NMOL ONCE, Promoter: ANTHRALIN, 1143-38-0
  tumour outcome (control, treated, inhibition, significance): 92%, 35%, 62%, p<0.05
Carcinogen: BENZO[A]PYRENE, 50-32-8, Dose [Inhibitor]: 0, 30 MG/KG IN 5% TWEEN 80 1/WK FOR 22 WK ADMINISTERED 30 MIN PRIOR TO EACH CARCINOGEN DOSE (STUDY DURATION: 22 WK), Route [Inhibitor]: ORAL, Species: MOUSE, Strain/Sex: CD-1/FEMALE, Target Tissue: Type of Lesion: SKIN: TUMOR, Dose [Carcinogen]: 200 NMOL 1/WK FOR 22 WK, Promoter: NONE USED
  tumour outcome (control, treated, inhibition, significance): 100%, 50%, 50%, p<0.05

## O=c1c(O)c(-c2cc(O)c(O)c(O)c2)oc2cc(O)ccc12
Carcinogen: (+/-)-7BETA,8ALPHA-DIHYDROXY-9ALPHA,10ALPHA-EPOXY-7,8,9,10-TETRAHYDROBENZO[A]PYR ENE, 58917-67-2, Dose [Inhibitor]: 0, 1400 NMOL (TOTAL DOSE) 10 MIN PRIOR TO CARCINOGEN DOSE INJECTED AS 1/7, 2/7,AND 4/7 OF THE TOTAL ON DAYS 1, 8, AND 15, Route [Inhibitor]: INTRAPERITONEAL, Species: MOUSE, Strain/Sex: ICR/MALE,FEMALE, Target Tissue: Type of Lesion: LUNG: TUMOR, Dose [Carcinogen]: 30 NMOL (TOTAL DOSE) INJECTED IN DOSES OF 1/7, 2/7, AND 4/7 ON DAYS 1,8, AND 15 OF LIFE, RESPECTIVELY, Promoter: NONE USED
  tumour outcome (control, treated, inhibition, significance): 93%, 50%, 46%, p<0.05
Carcinogen: (+/-)-7BETA,8ALPHA-DIHYDROXY-9ALPHA,10ALPHA-EPOXY-7,8,9,10-TETRAHYDROBENZO[A]PYR ENE, 58917-67-2, Dose [Inhibitor]: 0, 1400 NMOL (TOTAL DOSE) APPLIED 10 MIN PRIOR TO CARCINOGEN DOSE INJECTED AS 1/7, 2/7, AND 4/7 OF THE TOTAL ON DAYS 1,, Route [Inhibitor]: INTRAPERITONEAL, Species: MOUSE, Strain/Sex: ICR/MALE,FEMALE, Target Tissue: Type of Lesion: LUNG: TUMOR, Dose [Carcinogen]: 15 NMOL (TOTAL DOSE) INJECTED IN DOSES OF 1/7, 2/7, AND 4/7 ON DAYS 1, 8, AND 15 OF LIFE, RESPECTIVELY, Promoter: NONE USED
  tumour outcome (control, treated, inhibition, significance): 63%, 41%, 35%, p<0.05
Carcinogen: (+/-)-7BETA,8ALPHA-DIHYDROXY-9ALPHA,10ALPHA-EPOXY-7,8,9,10-TETRAHYDROBENZO[A]PYR ENE, 58917-67-2, Dose [Inhibitor]: 0, 2500 NMOL IN 200 µL ACETONE:DMSO (90:10) ONCE APPLIED 5 MIN PRIOR TO CARCINOGEN DOSE (STUDY DURATION: 21 WK), Route [Inhibitor]: DERMAL, Species: MOUSE, Strain/Sex: CD-1/FEMALE, Target Tissue: Type of Lesion: SKIN: TUMOR, Dose [Carcinogen]: 200 NMOL IN ACETONE:DMSO (90:10) ONCE, Promoter: 12-O-TETRADECANOYLPHORBOL-13-ACETATE, 16561-29-8
  tumour outcome (control, treated, inhibition, significance): 59%, 68%, -15%, not significant
Carcinogen: BENZO[A]PYRENE, 50-32-8, Dose [Inhibitor]: 0, 1400 NMOL (TOTAL DOSE) APPLIED 10 MIN PRIOR TO CARCINOGEN DOSE INJECTED AS 1/7, 2/7, AND 4/7 OF THE TOTAL ON DAYS 1,, Route [Inhibitor]: INTRAPERITONEAL, Species: MOUSE, Strain/Sex: ICR/MALE,FEMALE, Target Tissue: Type of Lesion: LUNG: TUMOR, Dose [Carcinogen]: 450 NMOL (TOTAL DOSE) INJECTED IN DOSES OF 1/7, 2/7, AND 4/7 ON DAYS 1, 8, AND 15 OF LIFE, RESPECTIVELY, Promoter: NONE USED
  tumour outcome (control, treated, inhibition, significance): 73%, 79%, -8%, not significant
Carcinogen: BENZO[A]PYRENE, 50-32-8, Dose [Inhibitor]: 0, 2500 NMOL IN 200 µL ACETONE:DMSO (90:10) ONCE APPLIED 5 MIN PRIOR TO CARCINOGEN DOSE (STUDY DURATION: 21 WK), Route [Inhibitor]: DERMAL, Species: MOUSE, Strain/Sex: CD-1/FEMALE, Target Tissue: Type of Lesion: SKIN: TUMOR, Dose [Carcinogen]: 50 NMOL IN ACETONE:DMSO (90:10) ONCE, Promoter: 12-O-TETRADECANOYLPHORBOL-13-ACETATE, 16561-29-8
  tumour outcome (control, treated, inhibition, significance): 50%, 54%, -8%, not significant

## C=C1C[C@H]2[C@@H]3CC[C@H](OC(C)=O)[C@@]3(C)CC[C@@H]2[C@@]2(C)CCC(=O)C=C12
Carcinogen: NONE USED, Dose [Inhibitor]: 0, 1 SILASTIC CAPSULE (1.5, 2.0, AND 15 MM IN INNER AND OUTER DIAMETERS AND LENGTH, RESPECTIVELY) REPLACED AFTER 2 MO IN, Route [Inhibitor]: SUBCUTANEOUS IMPLANT, Species: MOUSE, Strain/Sex: SHN/FEMALE, Target Tissue: Type of Lesion: MAMMARY GLAND: TUMOR, Promoter: NONE USED
  tumour outcome (control, treated, inhibition, significance): 100%, 75%, 25%, p<0.01

## O=c1c2ccccc2[se]n1-c1ccccc1
Carcinogen: 17BETA-ESTRADIOL, 50-28-2, Dose [Inhibitor]: 0, 0.2% IN DIET BEGINNING 5 D POST CARCINOGEN DOSE (STUDY DURATION: 7.5 MO), Route [Inhibitor]: ORAL, Species: HAMSTER, Strain/Sex: SYRIAN/MALE, Target Tissue: Type of Lesion: KIDNEY: TUMOR, Dose [Carcinogen]: 25 MG PELLET REPLACED WITH A SECOND PELLET AFTER 4 MO, Promoter: NONE USED
  tumour outcome (control, treated, inhibition, significance): 13/13 (100%), 8/11 (73%), 27%, p<0.05

## Cc1cccc(C(=O)/C=C/c2cccc(O)c2)c1
Carcinogen: 7,12-DIMETHYLBENZ[A]ANTHRACENE, 57-97-6, Dose [Inhibitor]: 0, 1.62 MICROMOLAR 2/WK FOR 18 WK APPLIED SIMULTANEOUSLY WITH PROMOTER DOSE (STUDY DURATION: 18 WK), Route [Inhibitor]: DERMAL, Species: MOUSE, Strain/Sex: ICR/FEMALE, Target Tissue: Type of Lesion: SKIN: TUMOR, Dose [Carcinogen]: 100 UG ONCE, Promoter: 12-O-TETRADECANOYLPHORBOL-13-ACETATE, 16561-29-8
  tumour outcome (control, treated, inhibition, significance): 90%, 20%, 78%, not calculated

## c1cnc2c(c1)ccc1cccnc12
Dose [Inhibitor]: 0, 15 MG/KG BW EVERY OTHER DAY BEGINNING 1 WK AFTER CARCINOGEN DOSING THROUGH WK 52 WK (STUDY DURATION: 52 WK), Route [Inhibitor]: INTRAPERITONEAL, Species: RAT, Strain/Sex: WISTAR/MALE, Target Tissue: Type of Lesion: STOMACH: ADENOCARCINOMA, Dose [Carcinogen]: 25 UG/ML IN DRINKING WATER FOR 25 WK, Promoter: SODIUM CHLORIDE (7647-14-5)
  tumour outcome (control, treated, inhibition, significance): 19/20 (95%), 9/20 (45%), 53%, p< 0.001
Dose [Inhibitor]: 0, 30 MG/KG BW EVERY OTHER DAY BEGINNING 1 WK AFTER CARCINOGEN DOSING THROUGH WK 52 WK (STUDY DURATION: 52 WK), Route [Inhibitor]: INTRAPERITONEAL, Species: RAT, Strain/Sex: WISTAR/MALE, Target Tissue: Type of Lesion: STOMACH: ADENOCARCINOMA, Dose [Carcinogen]: 25 UG/ML IN DRINKING WATER FOR 25 WK, Promoter: SODIUM CHLORIDE (7647-14-5)
  tumour outcome (control, treated, inhibition, significance): 19/20 (95%), 7/20 (35%), 63%, p< 0.01
